Measured values: patent US20120302577A1 (AB SCIENCE, priority 2010, published 2012)
Where a name gives a salt, the structure may show the parent alone.

Key:
[1] = tested on: patients with advanced GIST; conditions: cited from earlier work
[2] = tested on: patients with GIST; conditions: initial dose 400 mg/day, 345 patients; cited from earlier work
[3] = tested on: patients with advanced GIST; test: Phase 2 clinical trial, response rate according to RECIST (CT); assay type: in vivo, human; conditions: 2 months (N = 30)
Description: Methods; Patients: Patients enrolled in this study were aged over 18 years with inoperable, non-pretreated, histologically proven locally advanced or metastatic, c-Kit positive GIST. […] Exclusion criteria included: inadequate organ function defined via blood tests, severe liver or cardiac failure, and severe neurological or psychiatric disorders. Patients receiving a concomitant treatment within 4 weeks before inclusion, and pregnant or lactating women were also excluded. […] Methods; Statistical analyses: Simon […] two-stage design was used for this prospective, multicenter, single-group, phase II trial. Fourteen patients were initially enrolled, with recruitment of an additional ten patients being dependent on the occurrence of at least one objective RECIST response. This population was further extended to a total of 30 patients to ensure a sufficient evaluable population for all end-points; the type I(α) error was 5% (two-sided) for all analyses. Quantitative variables were described by the number of filled and missing data, mean, standard deviation, median, minimum and maximum. Qualitative variables were described by the number of missing data and, for each modality, frequency and percentage (referring to filled data). Time-to-event data were described using Kaplan-Meier (KM) estimates. The median was provided with its 95% confidence interval (95% CI). […]

[4] = tested on: patients with advanced GIST; test: Phase 2 clinical trial, safety assessment (adverse events, NCI CTCAE v3.0); assay type: in vivo, human; conditions: for Abdominal Pain / Abdominal Pain Upper / Anaemia / Asthenia / Diarrhoea / Dry Skin / Erythema / Eye Oedema / Eyelid Oedema / Lacrimation Increased / Mucosal Inflammation / Muscle Spasms / Myalgia / Nausea / Neutropenia / Oedema Peripheral / Pruritus / Rash / Vomiting: N = 30
Description: Methods; Patients: Patients enrolled in this study were aged over 18 years with inoperable, non-pretreated, histologically proven locally advanced or metastatic, c-Kit positive GIST. […] Exclusion criteria included: inadequate organ function defined via blood tests, severe liver or cardiac failure, and severe neurological or psychiatric disorders. Patients receiving a concomitant treatment within 4 weeks before inclusion, and pregnant or lactating women were also excluded. […] All adverse events (AEs), including abnormal serology or haematology, were recorded regardless of causality.

[5] = tested on: patients with advanced GIST; conditions: after 2 months of masitinib; cited from earlier work
[6] = tested on: imatinib-resistant HMC-1α155 cells; test: Apoptosis assay by Propidium Iodide staining on imatinib-resistant cells; assay type: cell-based, human; conditions: imatinib-resistant HMC-1α155 cells exposed to 1 μM
Experimental: HMC-1 is a human mast cell line derived from a patient with mast cell leukaemia. The cell line used in this study, HMC-1α155, is a clone derived from the original population expressing endogenous Kit bearing the mutation Val 560 to Gly. […] The medium used in this case was a RPMI medium containing L-glutamine (Cambrex cat#12-702F) supplemented with 100 U/mL penicillin and 100 μg/mL streptomycin (Cambrex 100× penicilline/streptomycine mixture cat #17-602E), and with 10% v/v foetal calf serum (AbCys Lot S02823S1800) which has been previously heat-inactivated 30 minutes at 56° C. (RPMI 10). The medium containing the drugs was replaced with fresh one every 3-4 days. […] The principle behind the method for apoptosis assay by Propidium Iodide Staining (PI staining) is as follows: during apoptosis, DNA breakup causes small fragments of DNA to be free in the nucleus. Following appropriate elution with citrate buffer, these fragments are lost from the nucleus. As these cells now have a lower DNA content, subsequent staining with a DNA binding dye will reveal these cells in the sub-G1 region.

[7] = tested on: patients with advanced GIST; test: Phase 2 clinical trial, metabolic response (FDG-PET); assay type: in vivo, human; conditions: At 1 month (N = 13)
Description: Methods; Patients: Patients enrolled in this study were aged over 18 years with inoperable, non-pretreated, histologically proven locally advanced or metastatic, c-Kit positive GIST. […] Exclusion criteria included: inadequate organ function defined via blood tests, severe liver or cardiac failure, and severe neurological or psychiatric disorders. Patients receiving a concomitant treatment within 4 weeks before inclusion, and pregnant or lactating women were also excluded.

[8] = tested on: patients with advanced GIST; test: Phase 2 clinical trial, time-to-event analysis (PFS, OS); assay type: in vivo, human
Description: Methods; Patients: Patients enrolled in this study were aged over 18 years with inoperable, non-pretreated, histologically proven locally advanced or metastatic, c-Kit positive GIST. […] Exclusion criteria included: inadequate organ function defined via blood tests, severe liver or cardiac failure, and severe neurological or psychiatric disorders. Patients receiving a concomitant treatment within 4 weeks before inclusion, and pregnant or lactating women were also excluded. […] Time-to-event analyses were calculated from the date of first masitinib intake to the date of event (documented progression or death). Patients who had not progressed at the date of last tumor assessment were censored at that date for PFS. Patients alive at the time of the analysis were censored at the date of last contact for OS. Methods; Statistical analyses: Simon […] two-stage design was used for this prospective, multicenter, single-group, phase II trial. Fourteen patients were initially enrolled, with recruitment of an additional ten patients being dependent on the occurrence of at least one objective RECIST response. This population was further extended to a total of 30 patients to ensure a sufficient evaluable population for all end-points; the type I(α) error was 5% (two-sided) for all analyses. Quantitative variables were described by the number of filled and missing data, mean, standard deviation, median, minimum and maximum. Qualitative variables were described by the number of missing data and, for each modality, frequency and percentage (referring to filled data). Time-to-event data were described using Kaplan-Meier (KM) estimates. The median was provided with its 95% confidence interval (95% CI). PFS rates were given every 6 months with KM estimates. All data analyses and reporting procedures used SAS v9.1 in a Windows XP operating system environment.

Cc1ccc(NC(=O)c2ccc(CN3CCN(C)CC3)cc2)cc1Nc1nccc(-c2cccnc2)n1 [imatinib]
2-year survival rate of patients with advanced GIST ([1]; after introduction of imatinib (pre-imatinib 25%)): about 70% | Patients with early resistance (progression within first 6 months, no response) ([1]; in vivo): 10-15% | 2-year PFS rate [2]: 46% | 2-year survival [2]: 72% | 3-year survival [2]: ~61% | Median PFS [2]: 18 months | Median overall survival (OS) [2]: 55 months

Cc1ccc(NC(=O)c2ccc(CN3CCN(C)CC3)cc2)cc1Nc1nc(-c2cccnc2)cs1 [masitinib, 4-(4-methylpiperazin-1-ylmethyl)-N-[4-methyl-3-(4-pyridin-3-ylthiazol-2-ylamino)phenyl]benzamide-mesylate methane sulfonic acid salt]
Response (RECIST) CR + PR + SD (disease control rate), % [3]: (96.7%) [82.8; 99.9] | Response (RECIST) CR, % ([3]; 7.5 mg/kg/day oral): (0.0%) | Abdominal Pain ([4]; All causalities, All grades): 16 (53.3%) Number (%) of patients | Abdominal Pain Upper ([4]; All causalities, All grades): 9 (30.0%) Number (%) of patients | Anaemia ([4]; All causalities, All grades): 6 (20.0%) Number (%) of patients | Asthenia ([4]; All causalities, All grades): 27 (90.0%) Number (%) of patients | Diarrhoea ([4]; All causalities, All grades): 18 (60.0%) Number (%) of patients | Dry Skin ([4]; All causalities, All grades): 4 (13.3%) Number (%) of patients | Erythema ([4]; All causalities, All grades): 6 (20.0%) Number (%) of patients | Eye Oedema ([4]; All causalities, All grades): 14 (46.7%) Number (%) of patients | Eyelid Oedema ([4]; All causalities, All grades): 7 (23.3%) Number (%) of patients | Lacrimation Increased ([4]; All causalities, All grades): 4 (13.3%) Number (%) of patients | Mucosal Inflammation ([4]; All causalities, All grades): 5 (16.7%) Number (%) of patients | Muscle Spasms ([4]; All causalities, All grades): 12 (40.0%) Number (%) of patients | Myalgia ([4]; All causalities, All grades): 4 (13.3%) Number (%) of patients | Nausea ([4]; All causalities, All grades): 15 (50.0%) Number (%) of patients | Neutropenia ([4]; All causalities, All grades): 5 (16.7%) Number (%) of patients | Oedema Peripheral ([4]; All causalities, All grades): 8 (26.7%) Number (%) of patients | Pruritus ([4]; All causalities, All grades): 11 (36.7%) Number (%) of patients | Rash ([4]; All causalities, All grades): 12 (40.0%) Number (%) of patients | Vomiting ([4]; All causalities, All grades): 10 (33.3%) Number (%) of patients | Abdominal Pain ([4]; All causalities, G3 + G4): 2 (6.7%) Number (%) of patients | Anaemia ([4]; All causalities, G3 + G4): 1 (3.3%) Number (%) of patients | Asthenia ([4]; All causalities, G3 + G4): 1 (3.3%) Number (%) of patients | Diarrhoea ([4]; All causalities, G3 + G4): 1 (3.3%) Number (%) of patients | Eye Oedema ([4]; All causalities, G3 + G4): 1 (3.3%) Number (%) of patients | Mucosal Inflammation ([4]; All causalities, G3 + G4): 1 (3.3%) Number (%) of patients | Neutropenia ([4]; All causalities, G3 + G4): 2 (6.7%) Number (%) of patients | Pruritus ([4]; All causalities, G3 + G4): 1 (3.3%) Number (%) of patients | Rash ([4]; All causalities, G3 + G4): 3 (10.0%) Number (%) of patients | Patients reporting at least one treatment-related AE ([4]; ITT N = 30): All patients | Treatment-related toxicity per patient: abdominal pain ([4]; ITT N = 30): 33% | Treatment-related toxicity per patient: asthenia ([4]; ITT N = 30): 83% | Treatment-related toxicity per patient: cutaneous rash ([4]; ITT N = 30): 40% | Treatment-related toxicity per patient: diarrhoea ([4]; ITT N = 30): 57% | Treatment-related toxicity per patient: eye oedema ([4]; ITT N = 30): 47% | Treatment-related toxicity per patient: muscle spasms ([4]; ITT N = 30): 40% | Treatment-related toxicity per patient: nausea ([4]; ITT N = 30): 47% | Treatment-related toxicity per patient: peripheral oedema ([4]; ITT N = 30): 20% | Treatment-related toxicity per patient: pruritus ([4]; ITT N = 30): 33% | Treatment-related toxicity per patient: upper abdominal pain ([4]; ITT N = 30): 23% | Treatment-related toxicity per patient: vomiting ([4]; ITT N = 30): 23% | Abdominal Pain ([4]; Suspected, All grades): 10 (33.3%) Number (%) of patients | Abdominal Pain Upper ([4]; Suspected, All grades): 7 (23.3%) Number (%) of patients | Anaemia ([4]; Suspected, All grades): 4 (13.3%) Number (%) of patients | Asthenia ([4]; Suspected, All grades): 25 (83.3%) Number (%) of patients | Diarrhoea ([4]; Suspected, All grades): 17 (56.7%) Number (%) of patients | Dry Skin ([4]; Suspected, All grades): 4 (13.3%) Number (%) of patients | Erythema ([4]; Suspected, All grades): 5 (16.7%) Number (%) of patients | Eye Oedema ([4]; Suspected, All grades): 14 (46.7%) Number (%) of patients | Eyelid Oedema ([4]; Suspected, All grades): 7 (23.3%) Number (%) of patients | Lacrimation Increased ([4]; Suspected, All grades): 4 (13.3%) Number (%) of patients | Mucosal Inflammation ([4]; Suspected, All grades): 5 (16.7%) Number (%) of patients | Muscle Spasms ([4]; Suspected, All grades): 12 (40.0%) Number (%) of patients | Myalgia ([4]; Suspected, All grades): 4 (13.3%) Number (%) of patients | Nausea ([4]; Suspected, All grades): 14 (46.7%) Number (%) of patients | Neutropenia ([4]; Suspected, All grades): 5 (16.7%) Number (%) of patients | Oedema Peripheral ([4]; Suspected, All grades): 6 (20.0%) Number (%) of patients | Pruritus ([4]; Suspected, All grades): 10 (33.3%) Number (%) of patients | Rash ([4]; Suspected, All grades): 12 (40.0%) Number (%) of patients | Vomiting ([4]; Suspected, All grades): 7 (23.3%) Number (%) of patients | Abdominal Pain ([4]; Suspected, G3 + G4): 1 (3.3%) Number (%) of patients | Anaemia ([4]; Suspected, G3 + G4): 1 (3.3%) Number (%) of patients | Asthenia ([4]; Suspected, G3 + G4): 1 (3.3%) Number (%) of patients | Diarrhoea ([4]; Suspected, G3 + G4): 1 (3.3%) Number (%) of patients | Eye Oedema ([4]; Suspected, G3 + G4): 1 (3.3%) Number (%) of patients | Mucosal Inflammation ([4]; Suspected, G3 + G4): 1 (3.3%) Number (%) of patients | Neutropenia ([4]; Suspected, G3 + G4): 2 (6.7%) Number (%) of patients | Pruritus ([4]; Suspected, G3 + G4): 1 (3.3%) Number (%) of patients | Rash ([4]; Suspected, G3 + G4): 3 (10.0%) Number (%) of patients | Cardiac side-effects ([4]; to date): no cardiac side-effects have been observed | Patients with tumour response assessed with DCE-US [5]: 75% | % apoptosis (cells in apoptosis with respect to overall cells) [6]: More than 45% | Metabolic response CMR + PMR (metabolic response rate), % [7]: (69.2%) | Metabolic response CMR, % [7]: (0.0%) | OS rates (%) [95% CI] ([8]; 12 months): 96.7% | PFS rate (%) [95% CI] ([8]; 24 months): 60% | PFS rate (%) [95% CI] ([8]; 36 months): 55%
